Data on 4 molecules can be found in publication PMC9323422 (Angewandte Chemie (International Ed. in English), 2022).

Series [1] in a line: Determination of partition coefficients DCM/water. The conditions noted are these: 24 h, room temperature. The series is classed as physicochemical.
For a further series, the system named is PTP1B. The conditions noted are these: cited from earlier work.
For a further series, the target named is T1, Recombinant human PTP1B (Homo sapiens, UniProt P18031).
T1 sequence (P18031 1-435): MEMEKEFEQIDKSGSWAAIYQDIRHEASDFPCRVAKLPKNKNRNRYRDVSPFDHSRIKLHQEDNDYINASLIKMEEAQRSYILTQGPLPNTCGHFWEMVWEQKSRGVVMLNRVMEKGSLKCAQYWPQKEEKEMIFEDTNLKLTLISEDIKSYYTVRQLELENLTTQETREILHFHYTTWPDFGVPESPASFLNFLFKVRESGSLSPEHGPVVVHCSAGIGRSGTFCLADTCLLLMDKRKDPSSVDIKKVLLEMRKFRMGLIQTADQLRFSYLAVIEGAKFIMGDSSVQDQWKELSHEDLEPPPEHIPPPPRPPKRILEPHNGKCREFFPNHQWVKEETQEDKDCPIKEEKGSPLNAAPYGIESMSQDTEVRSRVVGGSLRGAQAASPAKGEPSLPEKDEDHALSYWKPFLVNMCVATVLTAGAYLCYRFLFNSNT
Format: biochemical.

The conditions of series [2]: pH 2.
A short description of another series: Irradiation experiment. Format: physicochemical. The settings on record: 365 nm, 2 h, room temperature, isopropanol/water (70 : 30).

Each structure is given as a SMILES string.

For orientation: Ki means the equilibrium dissociation constant of an inhibitor or competing ligand from its target.

With `FC(F)(c1ccccc1)[P-](F)(F)(F)(F)F` [Compound 2], in series [1], the “Percent compound in DCM (organic phase)” value was 37%. Moreover, the “affinity, inhibition of PTP1B phosphatase activity” value in the series with PTP1B was “low, millimolar affinity”.

As to `NC(Cc1ccc(C(F)(F)[P-](F)(F)(F)(F)F)cc1)C(=O)O` (stereo not drawn) [Compound 3, 4‐pentafluoro‐phosphato‐difluoromethyl‐phenylalanine], at Recombinant human PTP1B, the Ki stood at 61 ± 8 µM and the “increase of affinity to PTP1B relative to phosphonate amino acid 1” value amounted to 25 fold. The “stability of the pentafluorophosphate anion” value in series [2] is given as “stable”.

With `CNC(=O)C(Cc1ccc(C(F)(F)[P-](F)(F)(F)(F)F)cc1)NC(C)=O` (stereo not drawn) [Compound 10], the “Percent compound in DCM (organic phase)” value in series [1] is 16%.

In the case of `NC(Cc1ccc(C(=O)[P-](F)(F)(F)(F)F)cc1)C(=O)O` (stereo not drawn) [Compound 12, 4‐(pentafluorophosphato‐carbonyl)‐phenylalanine], on Recombinant human PTP1B, the Ki turned out to be 52 ± 7 µM and the “increase of affinity to PTP1B relative to phosphonate amino acid 1” value was determined as 30 fold. Also, the photostability on irradiation entry in the series “Irradiation experiment” was “photoconversion of the PF5 residue”.
